The record followed here is patent US20230399341A1, “7-PHENYL SUBSTITUTED 2-AMINOQUINAZOLINE INHIBITORS OF HPK1” (MERCK SHARP & DOHME LLC, priority 2020, published 2023).

Structures are written as SMILES.

A word on the IC50: it is the concentration at which inhibition is half-maximal. High values mean weaker potency in that assay, low ones greater potency in that assay.

The target of the assay is T1, Human HPK1, catalytic domain (Homo sapiens, UniProt Q92918).
T1 sequence (Q92918 1-346): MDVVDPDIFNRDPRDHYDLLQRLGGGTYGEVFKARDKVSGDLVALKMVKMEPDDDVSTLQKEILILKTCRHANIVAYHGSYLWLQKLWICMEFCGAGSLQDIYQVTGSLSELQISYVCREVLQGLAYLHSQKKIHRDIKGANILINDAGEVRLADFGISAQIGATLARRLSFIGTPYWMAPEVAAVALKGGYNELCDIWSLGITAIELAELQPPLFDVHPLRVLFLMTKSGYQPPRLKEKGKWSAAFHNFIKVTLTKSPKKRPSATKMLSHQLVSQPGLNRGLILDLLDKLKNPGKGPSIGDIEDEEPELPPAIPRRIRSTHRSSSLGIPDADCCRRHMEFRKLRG
The assay is described as follows: HPK1-SLP76 TR-FRET Assay. In kind it is biochemical. To be noted: 75 pM HPK1, ATP 10 uM, SLP76 10 nM, 30 min pre-incubation, 60 min reaction. For orientation: In TR-FRET formats the signal depends on donor and acceptor labels being close together.

Turning to `COc1cc2c(cc1Nc1ncc3ccc(-c4cccc(CN)c4)cc3n1)CNCC2` [Compound 1-61, 7-[3-(aminomethyl)phenyl]-N-(6-methoxy-1,2,3,4-tetrahydroisoquinolin-7-yl)quinazolin-2-amine], the IC50 is 13.9 nM.
Compound `COc1cc2c(cc1Nc1ncc3ccc(-c4cccc(C(C)(C)N)c4)cc3n1)CNCC2` [Compound 1-89, 7-[3-(2-aminopropan-2-yl)phenyl]-N-(6-methoxy-1,2,3,4-tetrahydroisoquinolin-7-yl)quinazolin-2-amine] gave an IC50 of 156 nM.
For the compound `CN1CCc2ccc(Nc3ncc4c(N)c(F)c(-c5cnc6c(c5Cl)NCCO6)cc4n3)cc2C1` [Compound 2-124, 7-(8-chloro-2,3-dihydro-1H-pyrido[2,3-b][1,4]oxazin-7-yl)-6-fluoro-N~2~-(2-methyl-1,2,3,4-tetrahydroisoquinolin-7-yl)quinazoline-2,5-diamine], the IC50 was determined as 0.0474 nM.
Take `COc1cc2c(cc1Nc1ncc3ccc(-c4ccccc4-c4nnc(C)o4)cc3n1)CN(C)CC2` [Compound 1-110, N-(6-methoxy-2-methyl-1,2,3,4-tetrahydroisoquinolin-7-yl)-7-[2-(5-methyl-1,3,4-oxadiazol-2-yl)phenyl]quinazolin-2-amine]: the IC50 worked out at 302 nM.
For the compound `COc1cc2c(cc1Nc1ncc3ccc(-c4cccc(S(=O)(=O)N5CCCCC5)c4)cc3n1)CNCC2` [Compound 1-82, N-(6-methoxy-1,2,3,4-tetrahydroisoquinolin-7-yl)-7-{3-[(piperidin-1-yl)sulfonyl]phenyl}quinazo-line-2-amine], half-maximal inhibition (IC50) was put at 15.2 nM.
Next, `COc1cc2c(cc1Nc1ncc3ccc(-c4ccc(N)nc4)cc3n1)CNCC2` [Compound 1-27, 7-(6-aminopyridin-3-yl)-N-(6-methoxy-1,2,3,4-tetrahydroisoquinolin-7-yl)quinazolin-2-amine]: 9.91 nM; `COc1cncc(-c2ccc3cnc(Nc4cc5c(cc4OC)CCN(C)C5)nc3c2)c1` [Compound 1-17, N-(6-methoxy-2-methyl-1,2,3,4-tetrahydroisoquinolin-7-yl)-7-(5-methoxypyridin-3-yl)quinazolin-2-amine]: 19.1 nM.
For the compound `COc1cc2c(cc1Nc1ncc3ccc(N(C)CC4CNC(=O)O4)cc3n1)CN(C)CC2` (racemic) [Compound 3-30, (S and R)-5-1112-1(6-methoxy-2-methyl-1,2,3,4-tetrahydroiso-quinolin-7-yl)amino]quinazolin-7-yl}(methyl)amino]methyl}-1,3-oxazolidin-2-one], the IC50 was found to be 148 nM.
`COc1cc2c(cc1Nc1ncc3ccc(NCC4=NS(=O)(=O)c5cc(C)ccc5N4)cc3n1)CN(C)CC2` [Compound 3-18, 3-[({2-[(6-methoxy-2-methyl-1,2,3,4-tetrahydroisoquinolin-7-yl)amino]quinazolin-7-yl}-amino)methyl]-7-methyl-1lambda~6~,2,4-benzothia-diazine-1,1(4H)-dione]: the midpoint of inhibition, the IC50, lay at 204 nM.
Then `COc1cc2c(cc1Nc1ncc3ccc(N4CCCC4=O)cc3n1)CN(C)CC2` [Compound 3-1, 1-{2-[(6-methoxy-2-methyl-1,2,3,4-tetrahydroisoquinolin-7-yl)amino]quinazolin-7-yl}-pyrrolidin-2-one], with 241 nM.
As for `COc1cc2c(cc1Nc1ncc3ccc(N4CC5(CCNCC5)OC4=O)cc3n1)CN(C)CC2` [Compound 3-5, 3-{2-[(6-methoxy-2-methyl-1,2,3,4-tetrahydroisoquinolin-7-yl)amino]quinazolin-7-yl}-1-oxa-3,8-diazaspiro[4.5]decan-2-one], the IC50 came to 205 nM.
Consider `COC1CC(NC(=O)c2ccc(Nc3ncc4c(N)c(F)c(-c5cnc6c(c5C)NCCO6)cc4n3)cc2)C1` (centres unmarked) [Compound 2-58, 4-{[5-amino-6-fluoro-7-(8-methyl-2,3-dihydro-1H-pyrido[2,3-b][1,4]oxazin-7-yl)quinazolin-2-yl]amino}-N-(3-methoxycyclobutyl) benzamide], for which the IC50 was found to be 0.0791 nM.
`COc1cc2c(cc1Nc1ncc3ccc(-c4ccccc4C4CC4)cc3n1)CNCC2` [Compound 1-92, 7-(2-cyclopropylphenyl)-N-(6-methoxy-1,2,3,4-tetrahydroisoquinolin-7-yl)quinazolin-2-amine] had an IC50 of 92.4 nM.
In turn, `Cc1c(-c2cc3nc(Nc4ccc5c(c4)CN(C)C(C)C5)ncc3c(N)c2F)cnc2c1NCCO2` (single isomer, unassigned) [Compound 2-85, (R or S)—N2-(2,3-dimethyl-1,2,3,4-tetrahydroisoquinolin-7-yl)-6-fluoro-7-(8-methyl-2,3-dihydro-1H-pyrido[2,3-b][1,4]oxazin-7-yl)quinazoline-2,5-diamine] showed an IC50 of 0.0328 nM.
`COc1cc2c(cc1Nc1ncc3ccc(-c4ccc(NCCN5CCOCC5)nc4)cc3n1)CNCC2` [Compound 1-48, N-(6-methoxy-1,2,3,4-tetrahydroisoquinolin-7-yl)-7-(6-{[2-(morpholin-4-yl)ethyl]amino}pyridin-3-yl)quinazolin-2-amine] displayed an IC50 of 387 nM.
Compound `Cc1c(-c2cc3nc(Nc4ccc5c(c4)C(C)(C)OC5=O)ncc3cc2F)cnc2c1NCCO2` [Compound 1-112, 5-{[6-fluoro-7-(8-methyl-2,3-dihydro-1H-pyrido[2,3-b][1,4]oxazin-7-yl)quinazolin-2-yl]amino}-3,3-dimethyl-2-benzofuran-1(3H)-one] had an IC50 of 5.2 nM.
Next, `COc1cc2c(cc1Nc1ncc3ccc(Nc4cc(C(N)=O)ccn4)cc3n1)CN(C)CC2` [Compound 3-41, 2-({2-[(6-methoxy-2-methyl-1,2,3,4-tetrahydroisoquinolin-7-yl)amino]quinazolin-7-yl}-amino)pyridine-4-carboxamide]: 10 nM.
Then `COc1cc2c(cc1Nc1ncc3c(N)cc(N4C(=O)OC[C@@H]4C)cc3n1)CN(C)CC2` [Compound 3-17, (S)-3-{5-amino-2-[(6-methoxy-2-methyl-1,2,3,4-tetrahydroiso-quinolin-7-yl)amino]quinazolin-7-yl}-4-methyl-1,3-oxazolidin-2-one], with 0.0757 nM; and `Cc1c(-c2cc3nc(Nc4cc5c(cc4Cl)CCN(C)C5)ncc3c(N)c2F)cnc2c1NCCO2` [Compound 2-64, N~2~-(6-chloro-2-methyl-1,2,3,4-tetrahydroisoquinolin-7-yl)-6-fluoro-7-(8-methyl-2,3-dihydro-1H-pyrido[2,3-b][1,4]oxazin-7-yl)quinazoline-2,5-diamine], with 0.782 nM; and `COc1cc2c(cc1Nc1ncc3ccc(NCc4noc(C)n4)cc3n1)CN(C)CC2` [Compound 3-52, N~2~-(6-methoxy-2-methyl-1,2,3,4-tetrahydroisoquinolin-7-yl)-N~7~-[(5-methyl-1,2,4-oxadiazol-3-yl)methyl]quinaz-oline-2,7-diamine], with 97.9 nM.
`COc1cc2c(cc1Nc1ncc3ccc(-c4cccc(C(=O)N5CCCC5)c4)cc3n1)CNCC2` [Compound 1-86, (3-{2-[(6-methoxy-1,2,3,4-tetrahydroisoquinolin-7-yl)amino]quinazolin-7-yl}phenyl)(pyrrolidin-1-yl)methanone] came in with an IC50 of 44.1 nM.
Regarding `COc1cc2c(cc1Nc1ncc3ccc(-c4cncc(C#N)c4)cc3n1)CNCC2` [Compound 1-36, 5-{2-[(6-methoxy-1,2,3,4-tetrahydroisoquinolin-7-yl)amino]quinazolin-7-yl}pyridine-3-carbonitrile], the IC50 was 182 nM.
Turning to `COc1cc2c(cc1Nc1ncc3ccc(-c4cccc(C#N)c4)cc3n1)CNCC2` [Compound 1-65, 3-{2-[(6-methoxy-1,2,3,4-tetrahydroisoquinolin-7-yl)amino]quinazolin-7-yl}benzonitrile], the IC50 worked out at 120 nM.
In turn, `COc1cc2c(cc1Nc1ncc3ccc(N4C(=O)OC[C@@H]4C)cc3n1)CN(C)CC2` [Compound 3-2, (S)-3-{2-[(6-methoxy-2-methyl-1,2,3,4-tetrahydroisoquinolin-7-yl)amino]quinazolin-7-yl}-4-methyl-1,3-oxazolidin-2-one] registered a 50% inhibitory concentration (IC50) of 1.79 nM.
Compound `Cc1c(-c2cc3nc(Nc4ccc(CS(=O)(=O)N5CCCC5)cc4)ncc3c(N)c2F)cnc2c1NCCO2` [Compound 2-115, 6-fluoro-7-(8-methyl-2,3-dihydro-1H-pyrido[2,3-b][1,4]oxazin-7-yl)-N~2~- {4-[(pyrrolidine-1-sulfonyl)methyl]phenyl} quinazoline-2,5-diamine] yielded an IC50 of 0.12 nM.
Take `COc1cc(CS(C)(=O)=O)ccc1Nc1ncc2c(N)c(F)c(-c3cnc4c(c3C)NCCO4)cc2n1` [Compound 2-50, 6-fluoro-N2-(2-methoxy-4-((methylsulfonyl)methyl)phenyl)-7-(8-methyl-2,3-dihydro-1H-pyrido[2,3-b][1,4]oxazin-7-yl)quinazoline-2,5-diamine]: the IC50 is 0.0594 nM.
`COc1cc2c(cc1Nc1ncc3c(N)c(F)c(-c4cnc5c(c4C)NCCO5)cc3n1)C(CO)N(C)CC2` (racemic) [Compound 2-46, (R and S)-(7-{[5-amino-6-fluoro-7-(8-methyl-2,3-dihydro-1H-pyrido[2,3-b][1,4]oxazin-7-yl)quinazolin-2-yl]amino}-6-methoxy-2-methyl-1,2,3,4-tetrahydroisoquinolin-1-yl)methanol]: half-maximal inhibition (IC50) was put at 3.09 nM.
Turning to `COc1cc2c(cc1Nc1ncc3ccc(-c4ccc(-n5cccn5)nc4)cc3n1)CN(C)CC2` [Compound 1-107, N-(6-methoxy-2-methyl-1,2,3,4-tetrahydroisoquinolin-7-yl)-7-[6-(1H-pyrazol-1-yl)pyridin-3-yl]quinazolin-2-amine], it took 488 nM to reach half-maximal inhibition (IC50).
Compound `COc1cc2c(cc1Nc1ncc3ccc(-c4cc(S(=O)(=O)N5CCCC5)ccc4C)cc3n1)CNCC2` [Compound 1-78, N-(6-methoxy-1,2,3,4-tetrahydroisoquinolin-7-yl)-7-{2-methyl-5-[(pyrrolidin-1-yl)sulfonyl]phenyl}quinazo-lin-2-amine] returned an IC50 of 353 nM.
